Source: patent US20240391889A1, “ANTIMICROBIAL COMPOUNDS AND THE METHODS OF USE” (priority 2021, published 2024)
Converted amounts (≈) assume the structure as drawn. Numbered stars: 1 amine (or outer) side, 2 acyl side, 3 side chain; on linkers, the order of the positions; unused ones are H or OH. Square brackets hold non-standard residues; d marks the D form. Peptide text beside a SMILES is read from it. N(tridecyl)Gly = CCCCCCCCCCCCCNCC(=O)O; X1 = CC(c1ccccc1)N(CC(=O)[*:2])[*:1]; NFurfurylGly = O=C(O)CNCc1ccco1; Gly(N(CH2)3NH2) = NCCCNCC(=O)O; Nphe = O=C(O)CNCc1ccccc1; NPrGly = CCCNCC(=O)O; Nlys = NCCCCNCC(=O)O

Tests used:
HepG2 liver cells = test: in vitro; type: cell-based
Experimental: (§1) The mammalian cell lines that were tested (HepG2, 3T3, and HaCat) were incubated with RMG9-11 for 72 hours and cell viability was determined via mitochondrial activity using an MTT reduction assay where viable cells reduce MTT to formazan. Toxicity is reported as the concentration of the peptoid that results in a 50% reduction in viable cells, termed toxicity dose 50% or TD50. […] SR is defined as the TD50 divided by MIC and provides a measure of the therapeutic window for a compound. Typically for most lead compounds that would continue through development and optimization, a SR of 10 is preferred while an SR of 100 is more desirable for a compound moving into preclinical animal model evaluation.
(§2) Hepatocellular carcinoma (HepG2), mouse fibroblast (3T3), and human keratinocyte (HaCat) cells were cultured in Dulbeco modified eagle media (DMEM) containing 10% fetal bovine serum (FBS) and 1% penicillin, streptomycin, and glutamine (PSG) at 37° C. and 5% CO2. Cells were collected and adjusted to […] to 4×10^5 cells/mL in phenol-red free DMEM and plated (100 μL) 96 well plates. 2-fold serial dilutions of 10× peptoid (11.1 μL) were added to each well in triplicate. Water (vehicle) was used as a negative control. Plates were incubated at 37° C. in 5% CO2 for 72 hours. Thiazolyl blue tetrazolium bromide (MTT) was added to each well (5 mg/mL; 20 μL) and incubated for 3 hours. Media was removed, DMSO (100 μL) was added, and plates were incubated at 37° C. for 10 minutes. Plates were read on a SPECTRAMAX M5 plate reader (Abs. 570 nm). The concentration of compound resulting in a 50% reduction in growth compared to control (toxicity dose 50%; TD50) was determined using GRAFIT. This procedure was repeated three times on separate days.

[1] = test system: mouse fibroblast (3T3) cells; test: in vitro; type: cell-based
Experimental: as §1, §2

[2] = test system: human keratinocyte (HaCat) cells; test: in vitro; type: cell-based
Experimental: as §1, §2

in vitro = type: cell-based, human
Experimental: as §1, §2

C. albicans biofilm = test: Fungal biofilm minimum inhibitory concentration assay (PrestoBlue); type: cell-based, Candida albicans
Experimental: The biofilm minimum inhibitory concentration (MIC) of peptoids against fungal pathogens C. albicans was determined following CLSI guidelines (CLSI. Reference method for broth dilution antifungal susceptibility testing of yeasts; approved standard-third edition; CLSI document M27 A3. Clinical and Laboratory Standards Institute, 2008). Colonies were transferred from a streaked YPD plate to 0.85% saline to reach an OD530 between 0.15 and 0.25. This inoculant was diluted 1:100 into RPMI-MOPS and then further diluted 1:20 into RPMI-MOPS. 200 μL of inoculant was seeded into each well of a 96 well black-walled plate. Plates were incubated overnight at 37° C. Media was gently removed and gently washed three times with PBS. RPMI-MOPS (198 μL) were added to each well. 2-fold serial dilutions of 100× peptoid solutions were prepared in water and 2 μL of peptoid were added to each well in triplicate then incubated at 37° C. for 24 hours. PRESTOBLUE (20 μL) was added to each well and incubated at 37° C. for one hour before measuring fluorescence on a SPECTRAMAX M5 plate reader (Ex. 555 nm; Em. 585 nm).

C. parapsilosis = type: cell-based, Candida parapsilosis
C. neoformans = type: cell-based, Cryptococcus neoformans
Description: This screening led to the discovery of RMG9-11 (FIG. 2C). The minimum inhibitory concentration (MIC) of resynthesized RMG9-11 was initially determined against C. albicans, C. neoformans, and the ESKAPE bacteria via CSLI guidelines (CLSI. Methods for Dilution Antimicrobial Susceptibility Tests for Bacteria That Grow Aerobically, 11th Edition. Clinical and Laboratory Standards Institute (2018); CLSI. Reference method for broth dilution antifungal susceptibility testing of yeasts; approved standard-third edition; CLSI document M27-A3. Clinical and Laboratory Standards Institute (2008)). […] C. albicans clinical isolates include a reference strain (M1), fluconazole susceptible strains (M4 and M6), and fluconazole resistant strains (M2, M3, M5, and M7). ATCC 64124 is multidrug resistant C. albicans strain that is resistant to amphotericin B, fluconazole, caspofungin, and flucytosine. All MICs were performed under CSLI guidelines in triplicate on at least three different days.
The minimum inhibitory concentration (MIC) of peptoids against fungal pathogens C. albicans and C. neoformans was determined following CLSI guidelines (Reference method for broth dilution antifungal susceptibility testing of yeasts; approved standard-third edition; CLSI document M27-A3.” CLSI. 2008.). Colonies were transferred from a streaked YPD plate to 0.85% saline to reach an OD530 between 0.18 and 0.25. This inoculant was diluted 1:100 into RPMI-MOPS and then further diluted 1:20 into RPMI-MOPS. 198 μL of inoculant was seeded into each well of a 96 well black-walled plate. 2-fold serial dilutions of 100× peptoid solutions were prepared in water and 2 μL of peptoid were added to each well in triplicate. […] MIC was defined as the lowest concentration of compound preventing fungal growth. This assay was repeated 3 times on separate days with each compound.

**Q.** Which “toxicity at the MIC against C. albicans, HepG2” value (HepG2 liver cells) does the source give for `CCCCCCCCCCCCCNCC(=O)N(CCC)CC(=O)N(CC(=O)N(CCCCN)CC(=O)N(CC(=O)N(CC(=O)N(CCCN)CC(N)=O)Cc1ccccc1)Cc1ccco1)C(C)c1ccccc1` (stereo not shown) [RMG9-11] (H-[N(tridecyl)Gly][NPrGly][X1][Nlys][NFurfurylGly][Nphe][Gly(N(CH2)3NH2)]-NH2) here?
**A.** The value was “no toxicity”.

**Q.** And the “TD50 3T3” value [1]?
**A.** The value was 39 µg/mL.

**Q.** What about the “toxicity at the MIC, 3T3” value [1] of the same molecule?
**A.** Its value is “minimal”.

**Q.** And the “TD50 HaCat” value [2]?
**A.** Its value is 53 µg/mL.

**Q.** And the “toxicity at the MIC, HaCat” value [2]?
**A.** The value was “minimal”.

**Q.** What about the CC50 at 72 h (in vitro; human, HaCat human keratinocyte cells) of the same molecule?
**A.** Its CC50 at 72 h is 53 ± 5 µg/mL (≈ 50.8 µM).

**Q.** And the CC50 at 72 h (in vitro; human, HepG2 hepatocellular carcinoma cells)?
**A.** Its CC50 at 72 h is 114 ± 5 µg/mL (≈ 109 µM).

**Q.** What about the CC50 at 72 h (in vitro; mouse, 3T3 mouse fibroblast cells) of the same molecule?
**A.** The CC50 at 72 h was 39 ± 2 µg/mL (≈ 37.4 µM).

**Q.** And the “increase of biofilm MIC compared to MIC” value (C. albicans biofilm; BMIC vs planktonic C. albicans MIC)?
**A.** The value was 16 fold.

**Q.** What about the “MIC C. albicans biofilm (BMIC)” value (C. albicans biofilm; established biofilm, 24 h) of the same molecule?
**A.** The value was 100 µg/mL (≈ 95.8 µM).

**Q.** What about the “MIC C. parapsilosis” value (C. parapsilosis) of the same molecule?
**A.** Its value is 6.25 µg/mL (≈ 5.99 µM).

**Q.** And the “improvement of MIC C. neoformans vs C. albicans” value (C. neoformans)?
**A.** The value was 2 fold.

**Q.** And the “MIC C. neoformans” value (C. neoformans; 72 h)?
**A.** The value was 3.13 µg/mL (≈ 3 µM).
